Measurements taken from patent US7763660B2, “Inhibitors of Candida albicans” (The University of Vermont and State Agricultural College, priority 2003, dated 2010).

Key:
C. albicans cells = test: small molecule screen for inhibitors of the Spider media-induced budded-to-hyphal transition; assay type: cell-based, Candida albicans
Protocol: For the screen, C. albicans cells were grown in YNB media that inhibits hyphal growth and then transferred to 384-well optical plates containing Spider media to induce the budded-to-hyphal transition and hyphal elongation. […] In FIG. 3, the indicated small molecules were added at the indicated concentrations at time 0 and growth was allowed to continue for 4 h at 37° C. before the cells were fixed and observed microscopically. YNB media is well known in the art and contains yeast nitrogen base (DIFCO Labs.), glucose (US Biological) and d-H2O. Spyder media is well known in the art and contains nutrient broth (DIFCO Labs.), mannitol (Sigma-Aldrich), K2HPO4 (Sigma-Aldrich) and d-H2O.
Next, small molecules were assayed for their ability to inhibit the Spider media-induced hyphal growth.
The basic microscopic screen was described in detail above. To identify inhibitors, C. albicans cells are initially grown in YNB media that inhibits hyphal growth and then transferred to 384-well optical assay plates containing Spider media to induce the transition to hyphae. Individual molecules from the Chembridge small molecule library (Kao, R. Y. T., et al., 2002, Proc. Natl. Acad. Sci. USA 99: 10066-10071), or other library, are transferred from a 384-well plate containing stock solutions to individual wells of the assay plates. For convenience, positive and negative controls may be located at each corner of the plate. These plates are incubated at 37° C. for 4 h to allow for hyphal elongation before the cells are fixed and screened. Screening occurs on an inverted Nikon microscope with a computer driven XY stage with DIC/Hoffman optics, digital SPOT® camera and automatic shutter. Pictures are automatically taken of each well with the plate number and well position embedded in the picture through a script written for OpenLab® image analysis software from Improvision (INVIVO, from QED Imaging, Inc.). Inhibitory molecules are identified by rapidly screening a picture of each well for the presence of budded cells and absence of hyphal cells. Each inhibitor is retested at both 4 h and 16 h to eliminate those compounds that are cytotoxic, delay hyphal formation, or delay elongation through a growth defect. Molecules that give consistent inhibition of the budded-to-hyphal transition with continued budded growth with no hyphae out to 16 are further characterized as described below. A dose-response for each molecule is established through serial dilutions in order to determine the threshold concentration of each molecule. Typical threshold concentrations range from about 1 to about 100 micromolar (μM). In addition, the reversibility of each molecule is tested by washing out the molecule and adding fresh Spider media; cells that resume hyphal growth indicate that the molecule is reversible in action and that the molecule's initial effects were not due to cytotoxicity.

[1] = Scott, V. R., et al., 1988; cited from earlier work

SMILES	dose-dependence of the inhibition (C. albicans cells)	reversibility of the inhibition (C. albicans cells)	inhibition of the budded-to-hyphal transition and hyphal growth (C. albicans cells; 0.1 μM, 4 h at 37° C.)	inhibition of the budded-to-hyphal transition and hyphal growth (C. albicans cells; 1.6 μM added at time 0, 4 h at 37° C.)	anti-fungal activity [1]	cell phenotype in the screen (C. albicans cells; 4 h at 37° C. (FIG. 3))	cytotoxicity in the screen (C. albicans cells; 4 h at 37° C. (FIG. 3))
C/C1=C/C(=O)O[C@@H]2C[C@@H](CC[C@H](C)/C=C\C=C\CC1)O[C@@](O)([C@@H]1CSC(=O)N1)C2 [Lat A, latrunculin-A]	dose-dependent	reversible	effect was lost	inhibited the budded-to-hyphal transition and hyphal growth	–	–	–
C/C1=C\[C@H](C)C[C@H](C)OC(=O)C[C@H](c2ccc(O)cc2)NC(=O)[C@@H](Cc2c(Br)[nH]c3ccccc23)N(C)C(=O)[C@H](C)NC(=O)[C@@H](C)C1 [jasplakinolide]	–	–	–	–	previously shown to have anti-fungal activity	apparent cell-cycle arrest as small budded cells	dose-dependent cytotoxic molecule
